Values after ≈ are worked out from the molar mass of the structure shown.
Key:
Type in all cases: functional
Candida albicans = assay: Antimicrobial activity against Candida albicans MTCC 227 after 24 to 48 hr by broth microdilution method
Aspergillus fumigatus = assay: Antimicrobial activity against Aspergillus fumigatus MTCC 3008 after 24 to 48 hr by broth microdilution method
Salmonella typhimurium = assay: (§1) Antimicrobial activity against Salmonella enterica subsp. enterica serovar Typhi MTCC 98 after 24 to 48 hr by broth microdilution method
Vibrio cholerae = assay: Antimicrobial activity against Vibrio cholerae MTCC 3906 after 24 to 48 hr by broth microdilution method
Clostridium tetani = assay: Antimicrobial activity against Clostridium tetani MTCC 449 after 24 to 48 hr by broth microdilution method
Bacillus subtilis = assay: Antimicrobial activity against Bacillus subtilis MTCC 441 after 24 to 48 hr by broth microdilution method
Escherichia coli = assay: Antimicrobial activity against Escherichia coli MTCC 443 after 24 to 48 hr by broth microdilution method
Streptococcus pneumoniae = assay: Antimicrobial activity against Streptococcus pneumoniae MTCC 1936 after 24 to 48 hr by broth microdilution method
[1] = as §1

Row | Compound | MIC (Candida albicans) | MIC (Aspergillus fumigatus) | MIC (Salmonella typhimurium) | MIC (Vibrio cholerae) | MIC (Clostridium tetani) | MIC (Bacillus subtilis) | MIC (Escherichia coli) | MIC (Streptococcus pneumoniae) | MIC [1]
1 | COC1=CC(=O)C[C@@H](C)[C@]12Oc1c(Cl)c(OC)cc(OC)c1C2=O [GRISEOFULVIN] | 500 µg/mL (≈ 1420 µM) | 100 µg/mL (≈ 283 µM) | – | – | – | – | – | – | –
2 | CCn1cc(C(=O)O)c(=O)c2cc(F)c(N3CCNCC3)cc21 [NORFLOXACIN] | – | – | 10 µg/mL (≈ 31.3 µM) | 10 µg/mL (≈ 31.3 µM) | 50 µg/mL (≈ 157 µM) | 100 µg/mL (≈ 313 µM) | 10 µg/mL (≈ 31.3 µM) | 10 µg/mL (≈ 31.3 µM) | –
3 | GENTAMICIN | – | – | – | 5 µg/mL | 5 µg/mL | 1 µg/mL | 0.05 µg/mL | 0.5 µg/mL | 5 µg/mL
4 | Cc1ccc2c(c1)cc(-c1nc3ccccc3[nH]1)c1nnnn12 | 1000 µg/mL (≈ 3330 µM) | 1000 µg/mL (≈ 3330 µM) | 125 µg/mL (≈ 416 µM) | 250 µg/mL (≈ 832 µM) | 200 µg/mL (≈ 666 µM) | 100 µg/mL (≈ 333 µM) | 100 µg/mL (≈ 333 µM) | 200 µg/mL (≈ 666 µM) | –
5 | Clc1ccc2[nH]c(-c3cc4ccccc4n4nnnc34)nc2c1 | 500 µg/mL (≈ 1560 µM) | 1000 µg/mL (≈ 3120 µM) | 100 µg/mL (≈ 312 µM) | 500 µg/mL (≈ 1560 µM) | 500 µg/mL (≈ 1560 µM) | 500 µg/mL (≈ 1560 µM) | 250 µg/mL (≈ 779 µM) | 500 µg/mL (≈ 1560 µM) | –
6 | c1ccc2c(c1)cc(-c1nc3ccccc3[nH]1)c1nnnn12 | 1000 µg/mL (≈ 3490 µM) | > 1000 µg/mL | 500 µg/mL (≈ 1750 µM) | 200 µg/mL (≈ 699 µM) | 250 µg/mL (≈ 873 µM) | 200 µg/mL (≈ 699 µM) | 500 µg/mL (≈ 1750 µM) | 500 µg/mL (≈ 1750 µM) | –
7 | Cc1ccc2c(c1)cc(-c1nc3cc(C)ccc3[nH]1)c1nnnn12 | 1000 µg/mL (≈ 3180 µM) | > 1000 µg/mL | 1000 µg/mL (≈ 3180 µM) | 500 µg/mL (≈ 1590 µM) | 500 µg/mL (≈ 1590 µM) | 500 µg/mL (≈ 1590 µM) | 250 µg/mL (≈ 795 µM) | 500 µg/mL (≈ 1590 µM) | –
8 | CC1(C)S[C@@H]2[C@H](NC(=O)[C@H](N)c3ccccc3)C(=O)N2[C@H]1C(=O)O [AMPICILLIN] | – | – | 100 µg/mL (≈ 286 µM) | 100 µg/mL (≈ 286 µM) | 250 µg/mL (≈ 715 µM) | 250 µg/mL (≈ 715 µM) | 100 µg/mL (≈ 286 µM) | 100 µg/mL (≈ 286 µM) | –
9 | Clc1ccc2c(c1)cc(-c1nc3cc(Br)ccc3[nH]1)c1nnnn12 | 1000 µg/mL (≈ 2500 µM) | > 1000 µg/mL | 250 µg/mL (≈ 626 µM) | 500 µg/mL (≈ 1250 µM) | 500 µg/mL (≈ 1250 µM) | 250 µg/mL (≈ 626 µM) | 250 µg/mL (≈ 626 µM) | 500 µg/mL (≈ 1250 µM) | –
10 | Clc1ccc2c(c1)cc(-c1nc3ccccc3[nH]1)c1nnnn12 | 125 µg/mL (≈ 390 µM) | 500 µg/mL (≈ 1560 µM) | 250 µg/mL (≈ 779 µM) | 500 µg/mL (≈ 1560 µM) | 250 µg/mL (≈ 779 µM) | 250 µg/mL (≈ 779 µM) | 1000 µg/mL (≈ 3120 µM) | 500 µg/mL (≈ 1560 µM) | –
11 | COc1ccc2c(c1)cc(-c1nc3cc(Cl)ccc3[nH]1)c1nnnn12 | 250 µg/mL (≈ 713 µM) | 500 µg/mL (≈ 1430 µM) | 500 µg/mL (≈ 1430 µM) | 500 µg/mL (≈ 1430 µM) | 500 µg/mL (≈ 1430 µM) | 125 µg/mL (≈ 356 µM) | 500 µg/mL (≈ 1430 µM) | 500 µg/mL (≈ 1430 µM) | –
12 | O=C(O)c1cn(C2CC2)c2cc(N3CCNCC3)c(F)cc2c1=O [CIPROFLOXACIN] | – | – | 25 µg/mL (≈ 75.4 µM) | 25 µg/mL (≈ 75.4 µM) | – | – | 25 µg/mL (≈ 75.4 µM) | 50 µg/mL (≈ 151 µM) | –
13 | O=C(N[C@H](CO)[C@H](O)c1ccc([N+](=O)[O-])cc1)C(Cl)Cl [CHLORAMPHENICOL] | – | – | 50 µg/mL (≈ 155 µM) | 50 µg/mL (≈ 155 µM) | 50 µg/mL (≈ 155 µM) | 50 µg/mL (≈ 155 µM) | 50 µg/mL (≈ 155 µM) | 50 µg/mL (≈ 155 µM) | –
14 | Clc1ccc2c(c1)cc(-c1nc3cc(Cl)ccc3[nH]1)c1nnnn12 | 1000 µg/mL (≈ 2820 µM) | > 1000 µg/mL | 500 µg/mL (≈ 1410 µM) | 500 µg/mL (≈ 1410 µM) | 250 µg/mL (≈ 704 µM) | 125 µg/mL (≈ 352 µM) | 125 µg/mL (≈ 352 µM) | 250 µg/mL (≈ 704 µM) | –
15 | COc1ccc2c(c1)cc(-c1nc3ccccc3[nH]1)c1nnnn12 | 500 µg/mL (≈ 1580 µM) | 1000 µg/mL (≈ 3160 µM) | 250 µg/mL (≈ 790 µM) | 250 µg/mL (≈ 790 µM) | 500 µg/mL (≈ 1580 µM) | 250 µg/mL (≈ 790 µM) | 250 µg/mL (≈ 790 µM) | 250 µg/mL (≈ 790 µM) | –
16 | Cc1ccc2[nH]c(-c3cc4cc(Cl)ccc4n4nnnc34)nc2c1 | 1000 µg/mL (≈ 2990 µM) | > 1000 µg/mL | 500 µg/mL (≈ 1490 µM) | 250 µg/mL (≈ 747 µM) | 500 µg/mL (≈ 1490 µM) | 125 µg/mL (≈ 373 µM) | 250 µg/mL (≈ 747 µM) | 250 µg/mL (≈ 747 µM) | –
17 | Brc1ccc2[nH]c(-c3cc4ccccc4n4nnnc34)nc2c1 | 1000 µg/mL (≈ 2740 µM) | 1000 µg/mL (≈ 2740 µM) | 100 µg/mL (≈ 274 µM) | 250 µg/mL (≈ 685 µM) | 250 µg/mL (≈ 685 µM) | 500 µg/mL (≈ 1370 µM) | 100 µg/mL (≈ 274 µM) | 250 µg/mL (≈ 685 µM) | –
18 | COc1ccc2c(c1)cc(-c1nc3cc(C)ccc3[nH]1)c1nnnn12 | 250 µg/mL (≈ 757 µM) | 500 µg/mL (≈ 1510 µM) | 500 µg/mL (≈ 1510 µM) | 500 µg/mL (≈ 1510 µM) | 250 µg/mL (≈ 757 µM) | 500 µg/mL (≈ 1510 µM) | 500 µg/mL (≈ 1510 µM) | 500 µg/mL (≈ 1510 µM) | –
19 | Cc1ccc2[nH]c(-c3cc4ccccc4n4nnnc34)nc2c1 | 500 µg/mL (≈ 1660 µM) | 1000 µg/mL (≈ 3330 µM) | 250 µg/mL (≈ 832 µM) | 500 µg/mL (≈ 1660 µM) | 500 µg/mL (≈ 1660 µM) | 250 µg/mL (≈ 832 µM) | 125 µg/mL (≈ 416 µM) | 500 µg/mL (≈ 1660 µM) | –
20 | Cc1ccc2c(c1)cc(-c1nc3cc(Br)ccc3[nH]1)c1nnnn12 | 1000 µg/mL (≈ 2640 µM) | > 1000 µg/mL | 500 µg/mL (≈ 1320 µM) | 250 µg/mL (≈ 659 µM) | 1000 µg/mL (≈ 2640 µM) | 500 µg/mL (≈ 1320 µM) | 500 µg/mL (≈ 1320 µM) | 250 µg/mL (≈ 659 µM) | –
21 | NYSTATIN | 100 µg/mL | 100 µg/mL | – | – | – | – | – | – | –
22 | Cc1ccc2c(c1)cc(-c1nc3cc(Cl)ccc3[nH]1)c1nnnn12 | 1000 µg/mL (≈ 2990 µM) | > 1000 µg/mL | 500 µg/mL (≈ 1490 µM) | 500 µg/mL (≈ 1490 µM) | 500 µg/mL (≈ 1490 µM) | 500 µg/mL (≈ 1490 µM) | 250 µg/mL (≈ 747 µM) | 500 µg/mL (≈ 1490 µM) | –
23 | COc1ccc2c(c1)cc(-c1nc3cc(Br)ccc3[nH]1)c1nnnn12 | 1000 µg/mL (≈ 2530 µM) | 1000 µg/mL (≈ 2530 µM) | 500 µg/mL (≈ 1270 µM) | 500 µg/mL (≈ 1270 µM) | 250 µg/mL (≈ 633 µM) | 500 µg/mL (≈ 1270 µM) | 500 µg/mL (≈ 1270 µM) | 1000 µg/mL (≈ 2530 µM) | –

Reference: ChEMBL document CHEMBL3045502, “Microwave-assisted synthesis of some new tetrazolo[1,5-a]quinoline-based benzimidazoles catalyzed by p-TsOH and investigation of their antimicrobial activity” (2011)
